The NIST ThermoML archive (doi:10.1016/j.jct.2013.04.001)
Numbers after ± are expanded uncertainties.

Key:
[1] = wn = mass fraction of the nth substance listed; details: 101 kPa, Liquid; for mass density: Pycnometric method; for viscosity: Capillary tube (Ostwald / Ubbelohde) method
[2] = 101 kPa, Liquid, Capillary tube (Ostwald / Ubbelohde) method
[3] = mn = molality of the nth substance listed, in mol/kg; details: 101 kPa, Liquid, m2 = 0; for viscosity: Capillary tube (Ostwald / Ubbelohde) method

Structure (SMILES) | mass density ([1]; 293.15 K, w1 = 0.025) [kg/m3] | mass density ([1]; 293.15 K, w1 = 0.05) [kg/m3] | viscosity ([1]; 298.15 K, w1 = 0.025) [mPa·s] | viscosity ([1]; 298.15 K, w1 = 0.05) [mPa·s] | mass density ([1]; 298.15 K, w1 = 0.025) [kg/m3] | mass density ([1]; 298.15 K, w1 = 0.05) [kg/m3] | viscosity ([1]; 303.15 K, w1 = 0.025) [mPa·s] | viscosity ([1]; 303.15 K, w1 = 0.05) [mPa·s] | mass density ([1]; 303.15 K, w1 = 0.025) [kg/m3] | mass density ([1]; 303.15 K, w1 = 0.05) [kg/m3] | viscosity ([1]; 308.15 K, w1 = 0.025) [mPa·s] | viscosity ([1]; 308.15 K, w1 = 0.05) [mPa·s] | mass density ([1]; 308.15 K, w1 = 0.025) [kg/m3] | mass density ([1]; 308.15 K, w1 = 0.05) [kg/m3] | viscosity ([1]; 313.15 K, w1 = 0.025) [mPa·s] | viscosity ([1]; 313.15 K, w1 = 0.05) [mPa·s] | mass density ([1]; 313.15 K, w1 = 0.025) [kg/m3] | mass density ([1]; 313.15 K, w1 = 0.05) [kg/m3] | viscosity ([1]; 318.15 K, w1 = 0.025) [mPa·s] | viscosity ([1]; 318.15 K, w1 = 0.05) [mPa·s] | further results
O=C[C@H](O)[C@@H](O)[C@H](O)CO [D-xylose] + O | 1007.24 ± 0.33 | 1015.93 ± 0.34 | 0.9096 ± 0.037 | 0.964 ± 0.039 | 1005.63 ± 0.35 | 1014.27 ± 0.35 | 0.8077 ± 0.033 | 0.8547 ± 0.035 | 1004.03 ± 0.36 | 1012.62 ± 0.36 | 0.7269 ± 0.029 | 0.7637 ± 0.031 | 1002.43 ± 0.37 | 1010.96 ± 0.38 | 0.6571 ± 0.027 | 0.6869 ± 0.028 | 1000.84 ± 0.39 | 1009.31 ± 0.39 | 0.5992 ± 0.024 | 0.6253 ± 0.025 | mass density ([1]; 318.15 K, w1 = 0.025): 999.23 ± 0.4 kg/m3; mass density ([1]; 318.15 K, w1 = 0.05): 1007.66 ± 0.41 kg/m3
O=C[C@H](O)[C@@H](O)[C@@H](O)CO [L-arabinose] + O | 1007.35 ± 0.33 | 1016.09 ± 0.34 | 0.9141 ± 0.037 | 0.9695 ± 0.039 | 1005.77 ± 0.35 | 1014.44 ± 0.35 | 0.8116 ± 0.033 | 0.8573 ± 0.035 | 1004.18 ± 0.36 | 1012.79 ± 0.36 | 0.7304 ± 0.029 | 0.7658 ± 0.031 | 1002.6 ± 0.37 | 1011.13 ± 0.38 | 0.6591 ± 0.027 | 0.689 ± 0.028 | 1001.01 ± 0.39 | 1009.46 ± 0.39 | 0.6006 ± 0.024 | 0.6295 ± 0.025 | mass density ([1]; 318.15 K, w1 = 0.025): 999.43 ± 0.4 kg/m3; mass density ([1]; 318.15 K, w1 = 0.05): 1007.8 ± 0.41 kg/m3
O [water] |  |  |  |  |  |  |  |  |  |  |  |  |  |  |  |  |  |  |  |  | viscosity ([2]; 298.15 K): 0.8903 ± 0.036 mPa·s; viscosity ([2]; 303.15 K): 0.7973 ± 0.032 mPa·s; viscosity ([2]; 308.15 K): 0.719 ± 0.029 mPa·s; viscosity ([2]; 313.15 K): 0.6526 ± 0.026 mPa·s; viscosity ([2]; 318.15 K): 0.5972 ± 0.024 mPa·s
O [water] + N=C(N)NCCC[C@H](N)C(=O)O |  |  |  |  |  |  |  |  |  |  |  |  |  |  |  |  |  |  |  |  | viscosity ([3]; 298.15 K): 0.8903 ± 0.036 mPa·s; viscosity ([3]; 303.15 K): 0.7973 ± 0.032 mPa·s; viscosity ([3]; 308.15 K): 0.719 ± 0.029 mPa·s; mass density ([3]; 308.15 K, Pycnometric method): 994.07 ± 0.35 kg/m3; viscosity ([3]; 313.15 K): 0.6526 ± 0.026 mPa·s; viscosity ([3]; 318.15 K): 0.5972 ± 0.024 mPa·s
